In patent publication EP4745134A1 (Jiangsu Yahong Meditech Co., Ltd., priority 2023, dated 2025):
Where two headings read alike, the source gives them in different places.

Key:
HCT116 MTAP KO cells = test: Inhibitory activity against cell proliferation (CellTiter Glo, 6 days), HCT116 MTAP KO; format: cell-based; details: for IC50: Homo sapiens, HCT-116, 144 h, HCT116 MTAP KO cells, 6 days, CellTiter Glo, read-out: HCT116 MTAP KO IC50; for Selectivity HCT 116-WT/ HCT116 MTAP KO: ratio of IC50 HCT116-WT / HCT116 MTAP KO
Method in brief: (§1)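 Cells were seeded at 250 per well in McCoy's 5A with 10% FBS and left overnight at 37°C, 5% CO2. Compounds were added as 8-point, 4-fold dilutions from 10000 nM, with DMSO-only controls, for 6 days. IC50 values came from CellTiter Glo luminescence.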

PRMT5-MTA = PRMT5-MTA (Homo sapiens, UniProt O14744); test: Enzymatic inhibitory activity against PRMT5-MTA (AlphaScreen); format: biochemical
Method in brief: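 PRMT5/[…] (1 nM) was preincubated for 30 min at room temperature with 1 µM […] and 2.5 µM SAM, then exposed to compound (10-point, 3-fold from 1000 nM) for 15 min at 23 °C. Histone H4 substrate (5 nM) was added and reacted for 45 min at 23 °C. Symmetric dimethyl-R3 H4 was detected by AlphaScreen and IC50 calculated.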

HCT116-WT cells = test: Inhibitory activity against cell proliferation (CellTiter Glo, 6 days), HCT116-WT; format: cell-based; details: 144 h, HCT116-WT cells, 6 days, CellTiter Glo; read-out: HCT116-WT IC50
Method in brief: as §1

Sequence of PRMT5-MTA (O14744 whole entry): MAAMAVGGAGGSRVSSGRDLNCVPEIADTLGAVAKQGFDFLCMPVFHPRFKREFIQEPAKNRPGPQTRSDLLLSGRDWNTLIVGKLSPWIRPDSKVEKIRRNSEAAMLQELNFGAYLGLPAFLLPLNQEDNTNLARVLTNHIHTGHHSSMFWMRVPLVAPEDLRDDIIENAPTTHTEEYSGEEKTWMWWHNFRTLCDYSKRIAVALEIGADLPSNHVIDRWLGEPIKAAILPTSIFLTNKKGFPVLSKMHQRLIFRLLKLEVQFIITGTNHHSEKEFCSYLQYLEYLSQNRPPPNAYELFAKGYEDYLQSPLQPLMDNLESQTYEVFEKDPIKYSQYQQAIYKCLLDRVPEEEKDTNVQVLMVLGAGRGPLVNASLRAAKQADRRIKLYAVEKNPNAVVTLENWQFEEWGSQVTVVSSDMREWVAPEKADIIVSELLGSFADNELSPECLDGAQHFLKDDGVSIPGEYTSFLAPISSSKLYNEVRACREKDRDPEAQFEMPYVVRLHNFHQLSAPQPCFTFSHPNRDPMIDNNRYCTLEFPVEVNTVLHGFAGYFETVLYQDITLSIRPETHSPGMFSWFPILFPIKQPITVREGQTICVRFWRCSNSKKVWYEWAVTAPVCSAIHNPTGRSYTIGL
Sequence of PRMT5-MTA (Q9BQA1 whole entry partner): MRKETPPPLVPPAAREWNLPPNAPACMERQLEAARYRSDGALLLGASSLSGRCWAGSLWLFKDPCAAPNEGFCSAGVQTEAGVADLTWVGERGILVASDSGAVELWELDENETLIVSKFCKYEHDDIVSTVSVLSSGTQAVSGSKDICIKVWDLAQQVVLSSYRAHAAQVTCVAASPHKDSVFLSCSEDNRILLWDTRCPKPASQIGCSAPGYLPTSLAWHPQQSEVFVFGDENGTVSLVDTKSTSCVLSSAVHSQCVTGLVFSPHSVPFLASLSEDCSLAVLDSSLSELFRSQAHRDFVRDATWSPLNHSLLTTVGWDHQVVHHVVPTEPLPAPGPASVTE

Row | SMILES | IC50 (HCT116 MTAP KO cells) [nM] | Selectivity HCT 116-WT/ HCT116 MTAP KO (HCT116 MTAP KO cells) | IC50 (PRMT5-MTA; read-out: IC50) [nM] | IC50 (HCT116-WT cells) [nM] | IC50 (PRMT5-MTA) [nM]
1 | COC1CN(C(=O)c2cc3c(cc2C)nc(N)c2cnn(C)c23)N(c2ncc(F)cc2F)C1 (stereo not drawn) [Example 443, (4-amino-1,7-dimethyl-1H-pyrazolo[4,3-c]quinolin-8-yl)(2-(3,5- ? fluoropyridin-2-yl)-4-methoxypyrazolidin-1-yl)methanone] | 26 | 18.00 | 5 | 468 | –
2 | Cc1cc2cc(C(=O)N(Cc3ccc(-c4ccn(C)c4)cn3)N(C)c3ncccn3)ccc2nc1N [Example 148, 2-amino-N',3-dimethyl-N-((5-(1-methyl-1H-pyrrol-3-yl)pyridin-2-yl)methyl)-N'-(pyrimidin-2-yl)quinoline-6-carbohydrazide] | 179 | 17.25 | 1 | 3090 | –
3 | Cc1cc2cc(C(=O)N(Cc3ccc(C(F)(F)F)cn3)N(C)c3cccc(C(F)(F)F)n3)ccc2nc1N [Example 88, 2-amino-N',3-dimethyl-N'-(6-(trifluoromethyl)pyridin-2-yl)-N-((5-(trifluoromethyl)pyridin-2-yl)methyl)quinoline-6-carbohydrazide] | 176 | 11.56 | 2.5 | 2030 | –
4 | Cc1cc2cc(C(=O)N(Cc3ccc(-c4scnc4C)cn3)N(C)c3ncccn3)ccc2nc1N [Example 235, 2-amino-N',3-dimethyl-N-((5-(4-methylthiazol-5-yl)pyridin-2-yl)methyl)-N'-(pyrimidin-2-yl)quinoline-6-carbohydrazide] | 5.7 | 32.11 | 3.8 | 183 | –
5 | Cc1ncc(-c2cnc(N3CC(C)CN3C(=O)c3cc4c(cc3C)nc(N)c3cnn(C)c34)c(F)c2)cn1 (stereo not drawn) [Example 477, (4-amino-1,7-dimethyl-1H-pyrazolo[4,3-c]quinolin-8-yl)(2-(3-fluoro-5-(2-methylpyrimidin-5-yl)pyridin-2-yl)-4-methylpyrazolidin-1-yl)methanone] | 28 | 52.00 | 4.7 | 1460 | –
6 | Cc1cc2cc(C(=O)N(Cc3ccc(-c4cccnc4)cn3)N(C)c3ncccc3F)ccc2nc1N [Example 163, N-([3,3'-bipyridine]-6-ylmethyl)-2-amino -N'-(3-fluoropyridin-2-yl)-N',3-dimethylq uinoline-6-carbohydrazide] | 15 | 31.00 | 1.4 | 465 | –
7 | Cc1cc2nc(N)c3cnn(C)c3c2cc1C(=O)N1CC(C)(F)CN1c1ncccc1F (stereo not drawn) [Example 422, (4-amino-1,7-dimethyl-1H-pyrazolo[4,3-c]quinolin-8-yl)(4-fluoro-2-(3-fluoropyridin-2-yl)-4-methylpyrazolidin-1-yl)metha none] | 21 | 38.38 | 9.3 | 806 | –
8 | Cc1cc2cc(C(=O)N(Cc3ccc(-c4nncs4)cn3)N(C)c3ncccn3)ccc2nc1N [Example 229, N-((5-(1,3,4-thiadiazol-2-yl)pyridin-2-yl)methyl)-2-amino-N',3-dimethyl-N'-(pyrimidin-2-yl)quinoline-6-carbohydrazide] | 14 | 47.86 | 3.7 | 670 | –
9 | Cc1cc2cc(C(=O)N(Cc3ccc(C(F)(F)F)cn3)N(C)c3nccc(C#N)n3)ccc2nc1N [Example 110, 2-amino-N'-(4-cyanopyrimidin-2-yl)-N',3-dimethyl-N-((5-(trifluoromethyl)pyridin-2-yl)methyl)quinoline-6-carbohydrazide] | 172 | 15.71 | 2.5 | 2700 | –
10 | Cc1cc2cc(C(=O)N(Cc3ccc4ccccc4n3)N(C)c3ncccn3)ccc2nc1N [Example 51, 2-amino-N',3-dimethyl-N'-(pyrimidin-2-yl)-N-(quinolin-2-ylmethyl)quinoline-6-carbohydrazide] | 116 | 17.78 | 1.7 | 2060 | –
11 | Cc1cc2cc(C(=O)N(Cc3ccc(C(F)(F)F)cn3)Nc3ncccc3F)ccc2nc1N [Example 56, 2-amino-N'-(3-fluoropyridin-2-yl)-3-met hyl-N-((5-(trifluoromethyl)pyridin-2-yl)methyl)quinoline-6-carbohydrazide] | 139 | 23.99 | 3.5 | 3330 | –
12 | Cn1ncc2c(N)nc3cc(Cl)c(C(=O)N4CC(C)(F)CN4c4ncc(F)cc4F)cc3c21 (stereo not drawn) [Example 424, (4-amino-7-chloro-1-methyl-1H-pyrazolo [4,3-c]quinolin-8-yl)(2-(3,5-2 fluoropyridin-2-yl)-4-fluoro-4-methylpyrazolidin-1-yl)methanone] | 23 | 16.26 | 7.3 | 374 | –
13 | COC1CN(C(=O)c2cc3c(cc2C)nc(N)c2cnn(C)c23)N(c2ccccc2F)C1 (stereo not drawn) [Example 436] | 27 | 27.19 | – | 734 | 4.8
14 | Cc1cc2cc(C(=O)N(Cc3ccc(C(F)(F)F)cn3)N(c3nccc4nccnc34)C3CC3)ccc2nc1N [Example 65, 2-amino-N'-cyclopropyl-3-methyl-N'-(pyrido[3,4-b]pyrazin-5-yl)-N-((5-(trifluoromethyl)pyridin-2-yl)methyl)quinoline-6-carbohydrazide] | 48 | 44.77 | 4 | 2150 | –
15 | Cc1cc2cc(C(=O)N(Cc3ccc(C(F)(F)F)cn3)N(C)c3nccc4cccnc34)ccc2nc1N [Example 91, 2-amino-N',3-dimethyl-N'-(1,7-naphthyridin-8-yl)-N-((5-(trifluoromethyl)pyridin-2-yl)methyl)quinoline-6-carbohydrazide] | 43 | 39.42 | 2.9 | 1700 | –
16 | CC1OCc2c1c(N)nc1ccc(C(=O)N(Cc3ccc(C(F)(F)F)cn3)N(C)c3ncccn3)cc21 (stereo not drawn) [Example 70, 4-amino-N',3-dimethyl-N'-(pyrimidin-2-yl)-N-((5-(trifluoromethyl)pyridin-2-yl)methyl)-1,3-dihydrofuro[3,4-c]quinoline-8-carbohydrazide] | 21 | 10.57 | – | 222 | –
17 | Cc1cc2nc(N)c3cnn(C)c3c2cc1C(=O)N1CCCN1c1ncc(-c2ccsc2)cc1F [Example 483, (4-amino-1,7-dimethyl-1H-pyrazolo[4,3-c]quinolin-8-yl)(2-(3-fluoro-5-(thien-3-yl)pyridin-2-yl)pyrazolidin-1-yl)methanone] | 100 | 41.72 | – | 4170 | –
18 | CN(c1ccccc1F)N(Cc1ccc(C(F)(F)F)cn1)C(=O)c1ccc2nc(N)c3cnn(C)c3c2c1 [Example 281, 4-amino-N'-(2-fluorophenyl)-N',1-dimethyl-N-((5-(trifluoromethyl)pyridin-2-yl)methyl)-1H-pyrazolo[4,3-c]quinoline-8-carb ohydrazide] | 3.3 | 12.73 | – | 42 | –
